# Source: patent publication US20060148858A1, “1, 2-Azole derivatives with hypoglycemic and hypolipidemic activity” (priority 2002, published 2006)
row,Compound,melting point
1,"CC(C)c1nn(-c2ccc(C(F)(F)F)cn2)cc1CCCCOc1cccc(OC(C)(C)C(=O)O)c1 [Example 54, 2-[3-(4-{3-isopropyl-1-[5-(trifluoromethyl)-2-pyridinyl]-1H-pyrazol-4-yl}butoxy)phenoxy]-2-methylpropanoic acid]",81 to 82 °C
2,"CCOc1nn(-c2ccc(C(F)(F)F)cn2)cc1CCOc1cc(CC(=O)O)n(C)n1 [Example 284, [3-(2-{3-ethoxy-1-[5-(trifluoromethyl)-2-pyridinyl]-1H-pyrazol-4-yl}ethoxy)-1-methyl-1H-pyrazol-5-yl]acetic acid]",156 to 158 °C
3,"CC(C)c1nn(-c2ccc(C(F)(F)F)cn2)cc1CCCOc1cccc(CCC(=O)O)c1 [Example 23, 3-[3-(3-{3-isopropyl-1-[5-(trifluoromethyl)-2-pyridyl]-1H-pyrazol-4-yl}propoxy)phenyl]propionic acid]",102 to 103 °C
4,"CCC(CC)c1nn(-c2ccc(Br)cn2)cc1CCCOc1c(C)cccc1CC(=O)O [Example 353, (2-{3-[1-(5-bromo-2-pyridinyl)-3-(1-ethylpropyl)-1H-pyrazol-4-yl]propoxy}-3-methylphenyl) acetic acid]",120 to 121 °C
5,"CCCc1nn(-c2ccc(C(F)(F)F)cn2)cc1CCCOc1c(C)cnn1CC(=O)O [Example 329, [4-methyl-5-(3-{3-propyl-1-[5-(trifluoromethyl)-2-pyridinyl]-1H-pyrazol-4-yl}propoxy)-1H-pyrazol-1-yl]acetic acid]",145 to 146 °C
6,"COc1cc(OCCCCc2cn(-c3ccc(C(F)(F)F)cn3)nc2C(C)C)ccc1CCC(=O)O [Example 69, 3-[4-(4-{3-isopropyl-1-[5-(trifluoromethyl)-2-pyridinyl]-1H-pyrazol-4-yl}butoxy)-2-methoxyphenyl]propanoic acid]",125 to 126 °C
7,"CCCc1nn(-c2ccc(C(F)(F)F)cn2)cc1CCCOc1nn(C)cc1CCC(=O)O [Example 314, 3-[1-methyl-3-(3-{3-propyl-1-[5-(trifluoromethyl)-2-pyridinyl]-1H-pyrazol-4-yl}propoxy)-1H-pyrazol-4-yl]propanoic acid]",103 to 104 °C
8,"O=C(O)CCc1ccc(OCCCc2cc(-c3ccc(C(F)(F)F)cc3)no2)cc1 [Example 5, 3-[4-(3-{3-[4-(trifluoromethyl)phenyl]-5-isoxazolyl}propoxy)phenyl]propionic acid]",174 to 175 °C
9,"CCCc1nn(-c2ccc(C(F)(F)F)cn2)cc1CCCCOc1cc(CCC(=O)O)n(C)n1 [Example 70, 3-[1-methyl-3-(4-{3-propyl-1-[5-(trifluoromethyl)-2-pyridinyl]-1H-pyrazol-4-yl}butoxy)-1H-pyrazol-5-yl]propanoic acid]",122 to 123 °C
10,"CCOc1nn(-c2ccc(C(F)(F)F)cn2)cc1CCCOc1ccc(CCC(=O)O)cc1OCc1ccccc1 [Example 166, 3-[3-benzyloxy-4-(3-{3-ethoxy-1-[5-(trifluoromethyl)-2-pyridyl]-1H-pyrazol-4-yl}propoxy)phenyl]propanoic acid]",115 to 116 °C
11,"CCCc1nn(-c2ccc(C(F)(F)F)cn2)cc1CCCOc1c(CC(=O)O)cccc1C(C)C [Example 359, [3-isopropyl-2-(3-{3-propyl-1-[5-(trifluoromethyl)-2-pyridinyl]-1H-pyrazol-4-yl}propoxy)phenyl]acetic acid]",102 to 103 °C
12,"CCOc1cccc(CC(=O)O)c1OCCCc1cn(-c2ccc(C(F)(F)F)cn2)nc1OCC [Example 301, [3-ethoxy-2-(3-{3-ethoxy-1-[5-(trifluoromethyl)-2-pyridinyl]-1H-pyrazol-4-yl}propoxy)phenyl]acetic acid]",114 to 115 °C
13,"CCCc1nn(-c2ccc(C(F)(F)F)cn2)cc1CCCOc1nn(C)cc1CC(=O)O [Example 87, [1-methyl-3-(3-{3-propyl-1-[5-(trifluoromethyl)-2-pyridyl]-1H-pyrazol-4-yl}propoxy)-1H-pyrazol-4-yl]acetic acid]",119 to 120 °C
14,"CCOc1nn(-c2ccc(C(F)(F)F)cn2)cc1CCCOc1ccccc1CCC(=O)O [Example 144, 3-[2-(3-{3-ethoxy-1-[5-(trifluoromethyl)-2-pyridyl]-1H-pyrazol-4-yl}propoxy)phenyl]propionic acid]",93 to 94 °C
15,"CCOc1nn(-c2ccc(C(F)(F)F)cn2)cc1CCCOc1cc(CCC(=O)O)n(C)n1 [Example 48, 3-[3-(3-{3-ethoxy-1-[5-(trifluoromethyl)-2-pyridinyl]-1H-pyrazol-4-yl}propoxy)-1-methyl-1H-pyrazol-5-yl]propanoic acid]",137 to 138 °C
16,"CCCc1nn(-c2ccc(C(F)(F)F)cn2)cc1CCCOc1cccc(CCC(=O)O)c1 [Example 84, 3-[3-(3-{3-propyl-1-[5-(trifluoromethyl)-2-pyridyl]-1H-pyrazol-4-yl}propoxy)phenyl]propionic acid]",97 to 98 °C
17,"CCOc1cc(OCCCc2cn(-c3ccc(C(F)(F)F)cn3)nc2OCc2ccccc2)ccc1CCC(=O)O [Example 156, 3-[4-(3-{3-benzyloxy-1-[5-(trifluoromethyl)-2-pyridyl]-1H-pyrazol-4-yl}propoxy)-2-ethoxyphenyl]propanoic acid]",106 to 107 °C

row,Compound,melting point
1,"CCOc1nn(-c2ccccn2)cc1CCCOc1cc(CCC(=O)O)n(-c2ccccc2)n1 [Example 103, 3-(3-{3-[3-ethoxy-1-(2-pyridinyl)-1H-pyrazol-4-yl]propoxy}-1-phenyl-1H-pyrazol-5-yl)propanoic acid]",156 to 157 °C
2,"Cc1nn(-c2ccc(C(F)(F)F)cn2)cc1COc1ccc(OCC(=O)O)cc1 [Example 10, (4-{3-methyl-1-[5-(trifluoromethyl)-2-pyridyl]-1H-pyrazol-4-ylmethoxy}phenoxy)acetic acid]",138 to 139 °C
3,"O=C(O)c1cccc(OCCCc2cc(-c3ccc(C(F)(F)F)cc3)no2)c1 [Example 4, 3-(3-{3-[4-(trifluoromethyl)phenyl]-5-isoxazolyl}propoxy)benzoic acid]",133 to 134 °C
4,"CCCc1nn(-c2ccc(C(F)(F)F)cn2)cc1CCCOc1c(CC)cnn1CC(=O)O [Example 331, [4-ethyl-5-(3-{3-propyl-1-[5-(trifluoromethyl)-2-pyridinyl]-1H-pyrazol-4-yl}propoxy)-1H-pyrazol-1-yl]acetic acid]",135 to 136 °C
5,"O=C(O)Cc1cccc(OCCCCc2cc(-c3ccc(C(F)(F)F)cc3)no2)c1 [Example 16, [3-(4-{3-[4-(trifluoromethyl)phenyl]-5-isoxazolyl}butoxy)phenyl]acetic acid]",134 to 135 °C
6,"CCOc1nn(-c2ccc(C(F)(F)F)cn2)cc1CCCOc1ccc(OC)cc1CC(=O)O [Example 132, [2-(3-{3-ethoxy-1-[5-(trifluoromethyl)-2-pyridyl]-1H-pyrazol-4-yl}propoxy)-5-methoxyphenyl]acetic acid]",138 to 139 °C
7,"CCCc1nn(-c2ccc(C(F)(F)F)cn2)cc1CCCOc1ccccc1CC(=O)O [Example 47, [2-(3-{3-propyl-1-[5-(trifluoromethyl)-2-pyridyl]-1H-pyrazol-4-yl}propoxy)phenyl]acetic acid]",100 to 101 °C
8,"CC(C)c1cccc(CC(=O)O)c1OCCCc1cn(-c2ccc(C(F)(F)F)cn2)nc1C(C)C [Example 357, [3-isopropyl-2-(3-{3-isopropyl-1-[5-(trifluoromethyl)-2-pyridinyl]-1H-pyrazol-4-yl}propoxy)phenyl]acetic acid]",108 to 109 °C
9,"CCOc1cc(OCCCc2cn(-c3ccc(C(F)(F)F)cn3)nc2O)ccc1CCC(=O)O [Example 151, 3-[2-ethoxy-4-(3-{3-hydroxy-1-[5-(trifluoromethyl)-2-pyridyl]-1H-pyrazol-4-yl}propoxy)phenyl]propanoic acid]",192 to 194 °C
10,"O=C(O)Cc1ccc(OCCCCc2cc(-c3ccc(C(F)(F)F)cc3)no2)cc1 [Example 13, [4-(4-{3-[4-(trifluoromethyl)phenyl]-5-isoxazolyl}butoxy)phenyl]acetic acid]",125 to 126 °C
11,"CCCc1nn(-c2ccc(C(F)(F)F)cn2)cc1CCCOc1nn(C2CCCCC2)cc1CC(=O)O [Example 320, [1-cyclohexyl-3-(3-{3-propyl-1-[5-(trifluoromethyl)-2-pyridinyl]-1H-pyrazol-4-yl}propoxy)-1H-pyrazol-4-yl]acetic acid]",127 to 128 °C
12,"CCOc1nn(-c2ccccn2)cc1CCCOc1cccc(CC(=O)O)c1 [Example 106, (3-{3-[3-ethoxy-1-(2-pyridinyl)-1H-pyrazol-4-yl]propoxy}phenyl)acetic acid]",66 to 67 °C
13,"CC(C)c1nn(-c2ccc(C(F)(F)F)cn2)cc1COc1cccc(CC(=O)O)c1 [Example 176, 3-{3-isopropyl-1-[5-(trifluoromethyl)-2-pyridyl]-1H-pyrazol-4-yl}methoxyphenylacetic acid]",114 to 115 °C
14,"COc1cccc(CC(=O)O)c1OCCCc1cn(-c2ccc(C(F)(F)F)nn2)nc1C(C)(C)C [Example 366, [2-(3-{3-tert-butyl-1-[6-(trifluoromethyl)pyridazin-3-yl]-1H-pyrazol-4-yl}propoxy)-3-methoxyphenyl]acetic acid]",131 to 132 °C
15,"CCCc1nn(-c2ccc(C(F)(F)F)cn2)cc1CCCCOc1ccc(CCC(=O)O)c(C)c1 [Example 64, 3-[2-methyl-4-(4-{3-propyl-1-[5-(trifluoromethyl)-2-pyridinyl]-1H-pyrazol-4-yl}butoxy)phenyl]propanoic acid]",105 to 107 °C
16,"CCOc1nn(-c2ccc(C(F)(F)F)cn2)cc1CCCOc1ccc(CCC(=O)O)cc1O [Example 161, 3-[4-(3-{3-ethoxy-1-[5-(trifluoromethyl)-2-pyridyl]-1H-pyrazol-4-yl}propoxy)-3-hydroxyphenyl]propanoic acid]",124 to 125 °C
17,"CC(C)c1nn(-c2ccc(C(F)(F)F)cn2)cc1CCCOc1cc(CCC(=O)O)n(C)n1 [Example 25, 3-[3-(3-{3-isopropyl-1-[5-(trifluoromethyl)-2-pyridyl]-1H-pyrazol-4-yl}propoxy)-1-methyl-1H-pyrazol-5-yl]propionic acid]",131 to 132 °C
